Here are results for 17 compounds from patent US20230036854A1, “HETEROCYCLIC SPIRO-COMPOUNDS AS AM2 RECEPTOR INHIBITORS” (THE UNIVERSITY OF SHEFFIELD, priority 2018, published 2023).

For the assay, the target named is T1, AM2 receptor (1321N1 cells transfected with CALCRL+RAMP3) (Homo sapiens, UniProt O60896+Q16602).
T1 construct: host or cells: 1321N1 cells
T1 sequence (Q16602 23-461): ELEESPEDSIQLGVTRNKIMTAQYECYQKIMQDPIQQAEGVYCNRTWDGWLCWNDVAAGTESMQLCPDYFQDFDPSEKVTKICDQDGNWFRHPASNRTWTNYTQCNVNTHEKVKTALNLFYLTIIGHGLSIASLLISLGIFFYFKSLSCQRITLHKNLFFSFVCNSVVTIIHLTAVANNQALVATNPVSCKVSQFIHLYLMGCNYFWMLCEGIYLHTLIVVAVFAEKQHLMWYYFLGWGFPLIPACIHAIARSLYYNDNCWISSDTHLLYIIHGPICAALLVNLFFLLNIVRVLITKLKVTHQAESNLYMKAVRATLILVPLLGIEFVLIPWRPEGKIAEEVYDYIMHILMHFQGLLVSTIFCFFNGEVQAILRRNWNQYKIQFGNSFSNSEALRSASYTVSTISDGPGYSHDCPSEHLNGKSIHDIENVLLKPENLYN
T1 sequence (O60896 24-148): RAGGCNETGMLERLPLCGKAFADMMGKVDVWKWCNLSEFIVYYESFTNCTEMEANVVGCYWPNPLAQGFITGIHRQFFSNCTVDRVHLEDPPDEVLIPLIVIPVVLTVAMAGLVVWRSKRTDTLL
The assay is described as follows: AM2 receptor inhibition, LANCE cAMP agonist-antagonist competition assay. In kind it is cell-based. The note with it: inhibition of AM induced cAMP activation, read-out: AM2 D2 protocol: pIC50 (converted). Here is the method:
Compounds were assessed for their ability to inhibit ligand-induced elevations of cAMP, using the Perkin Elmer LANCE cAMP assay using commercially-available cells expressing a specific receptor of interest using the following general procedure:
Compounds were prepared in dimethyl sulfoxide (DMSO—99.9% pure) (Sigma Aldrich, Cat #: D4540) added to powder stocks to produce a 20 mM solution (100% DMSO) that was sonicated at 37° C. for 10 minutes to fully dissolve the compounds. The 20 mM stocks were diluted further in DMSO to produce a 2 mM solution that was sonicated at 37° C. for 10 minutes. 2 mM stocks were dissolved in assay/stimulation buffer to produce a 400 μM solution that was sonicated at 37° C. for 10 minutes for all cAMP assays. All stocks were stored at −20° C. Then serial dilution (Dilution factor: 10) was performed to achieve the desire experimental concentrations.
Competition assays were performed according to the manufactures instructions using LANCE® TR-FRET cAMP assay kit (Perkin Elmer, Cat #: AD0264). Serial dilutions (3 μl/well) of the molecules were plated in a 384-well OptiPlate (Perkin Elmer, Cat #: 6007299) in duplicates. Appropriate controls (100% stimulation: Forskolin and 0% stimulation: Vehicle control) (6 μl/well) were included in each plate for data normalization. Following the compound addition, 6 μl of G-protein coupled receptor overexpressing cells/Alexa Fluor antibody solution (1:100 dilution) was added in each well at a desired density of 2500cells/well. The overexpressing cell lines were purchased from DiscoveRx, Birmingham, UK. After spinning the plate at 1000 rpm for 1 minute and vortexing briefly, the cells were pre-incubated with the compounds for 30 minutes at room temperature (covered). Then 3 μl of the equivalent peptide ligand (EC50 dose) was added to all the wells except vehicle and forskolin controls. The plate were then spun down at 1000 rpm for 1 minute and once finished they were vortexed briefly and covered. Cells were stimulated in the presence of the ligands for 15 minutes at room temperature. After stimulation 12 μl of detection mix (Europium-Chelate streptavidin/biotinylated cAMP tracer solution) was added to all wells and incubated for 60 minutes at room temperature. The plate was then read on the Enspire multimode Plate reader (Perkin Elmer), at; 320/340 nm excitation and 615/665 nm emission was recorded.
Assay/Stimulation Buffer (30 mL)—pH 7.4 • 28 mL Hank's Balanced salt solution (+MgCl2, +CaCl2)—(Thermo Fisher Cat #:14170112) • 150 μl HEPES (1M)—(Thermo Fisher Cat #:15630080) • 400 μl Stabilizer (DTPA) Purified BSA (7.5%)—(Perkin Elmer, Cat #: CR84-100)
The ability of a compound to inhibit the AM induced cAMP activation in AM2 receptor-expressing cells (1321N1 cells transfected with CALCRL+RAMP3, sourced from DiscoverX catalogue number 95-0169C6) was assessed using the protocol above.
Regarding `CNCc1ccccc1CN(CC(=O)Nc1ccc2c(c1)C[C@@]1(C2)C(=O)Nc2ncccc21)C(=O)C1(C)CCN(C(=O)c2cccc(C(=O)O)c2)CC1` [Example 33, (R)-3-(4-Methyl-4-((2-((methylamino)methyl)benzyl)(2-oxo-2-((2′-oxo-1,1′,2′,3-tetrahydrospiro[indene-2,3′-pyrrolo[2,3-b]pyridin]-5-yl)amino)ethyl)carbamoyl)piperidine-1-carbonyl)benzoic Acid], the IC50 is 15.1 nM.
On to `CNCc1ccccc1CN(CC(=O)Nc1ccc2c(c1)C[C@@]1(C2)C(=O)Nc2ncccc21)C(=O)C1(C)CCN(C(=O)c2ccccc2C(=O)O)CC1` [Example 34, (R)-2-(4-Methyl-4-((2-((methylamino)methyl)benzyl)(2-oxo-2-((2′-oxo-1,1′,2′,3-tetrahydrospiro[indene-2,3′-pyrrolo[2,3-b]pyridin]-5-yl)amino)ethyl)carbamoyl)piperidine-1-carbonyl)benzoic Acid], for which the IC50 is 70.8 nM.
The value for `CNCc1ccccc1CN(CC(=O)Nc1ccc2c(c1)C[C@@]1(C2)C(=O)Nc2ncccc21)C(=O)C1(C)CCN(C(=O)c2ccc(C(=O)O)cc2)CC1` [Example 35, (R)-4-(4-Methyl-4-((2-((methylamino)methyl)benzyl)(2-oxo-2-((2′-oxo-1,1′,2′,3-tetrahydrospiro[indene-2,3′-pyrrolo[2,3-b]pyridin]-5-yl)amino)ethyl)carbamoyl)piperidine-1-carbonyl)benzoic Acid] was 3.8 nM; that for `CNCc1ccccc1CN(CC(=O)Nc1ccc2c(c1)C[C@@]1(C2)C(=O)Nc2ncccc21)C(=O)C1(C)CCN(C)CC1` [Example 36, (R)-1,4-Dimethyl-N-(2-((methylamino)methyl)benzyl)-N-(2-oxo-2-((2′-oxo-1,1′,2′,3-tetrahydrospiro[indene-2,3′-pyrrolo[2,3-b]pyridin]-5-yl)amino)ethyl)piperidine-4-carboxamide] was 1.82 nM.
Consider `CNCc1ccccc1CN(CC(=O)Nc1ccc2c(c1)C[C@@]1(C2)C(=O)Nc2ncccc21)C(=O)C1(C)CCN(CC(N)=O)CC1` [Example 37, (R)-1-(2-Amino-2-oxoethyl)-4-methyl-N-(2-((methylamino)methyl)benzyl)-N-(2-oxo-2-((2′-oxo-1,1′,2′,3-tetrahydrospiro[indene-2,3′-pyrrolo[2,3-b]pyridin]-5-yl)amino)ethyl)piperidine-4-carboxamide], for which the IC50 was 35.5 nM.
With `CNCc1ccccc1CN(CC(=O)Nc1ccc2c(c1)CC1(C2)C(=O)Nc2ncccc21)C(=O)C1(C)CCN(CC(F)(F)F)CC1` (centres unmarked) [Example 38, 4-Methyl-N-(2-((methylamino)methyl)benzyl)-N-(2-oxo-2-((2′-oxo-1,1′,2′,3-tetrahydrospiro[indene-2,3′-pyrrolo[2,3-b]pyridin]-5-yl)amino)ethyl)-1-(2,2,2-trifluoroethyl)piperidine-4-carboxamide] the figure was 10.5 nM; with `CNCc1ccccc1CN(CC(=O)Nc1ccc2c(c1)C[C@@]1(C2)C(=O)Nc2ncccc21)C(=O)C1(C)CCN(CC(F)(F)F)CC1` [Example 39, (R)-4-Methyl-N-(2-((methylamino)methyl)benzyl)-N-(2-oxo-2-((2′-oxo-1,1′,2′,3-tetrahydrospiro[indene-2,3′-pyrrolo[2,3-b]pyridin]-5-yl)amino)ethyl)-1-(2,2,2-trifluoroethyl)piperidine-4-carboxamide], 19.5 nM.
For the compound `CNCc1ccccc1CN(CC(=O)Nc1ccc2c(c1)C[C@@]1(C2)C(=O)Nc2ncccc21)C(=O)C1(C)CCN(Cc2ccccc2)CC1` [Example 40, (R)-1-Benzyl-4-methyl-N-(2-((methylamino)methyl)benzyl)-N-(2-oxo-2-((2′-oxo-1,1′,2′,3-tetrahydrospiro[indene-2,3′-pyrrolo[2,3-b]pyridin]-5-yl)amino)ethyl)piperidine-4-carboxamide], the IC50 is 6.31 nM.
On to `CNCc1ccccc1CN(CC(=O)Nc1ccc2c(c1)C[C@@]1(C2)C(=O)Nc2ncccc21)C(=O)C1(C)CCN(CCOC)CC1` [Example 41, (R)-1-(2-Methoxyethyl)-4-methyl-N-(2-((methylamino)methyl)benzyl)-N-(2-oxo-2-((2′-oxo-1,1′,2′,3-tetrahydrospiro[indene-2,3′-pyrrolo[2,3-b]pyridin]-5-yl)amino)ethyl)piperidine-4-carboxamide], for which the IC50 is 1.1 nM.
With `CNCc1ccccc1CN(CC(=O)Nc1ccc2c(c1)C[C@@]1(C2)C(=O)Nc2ncccc21)C(=O)C1(C)CCN(CCO)CC1` [Example 42, (R)-1-(2-Hydroxyethyl)-4-methyl-N-(2-((methylamino)methyl)benzyl)-N-(2-oxo-2-((2′-oxo-1,1′,2′,3-tetrahydrospiro[indene-2,3′-pyrrolo[2,3-b]pyridin]-5-yl)amino)ethyl)piperidine-4-carboxamide] the figure was 6.46 nM.
Take `CNCc1ccccc1CN(CC(=O)Nc1ccc2c(c1)C[C@@]1(C2)C(=O)Nc2ncccc21)C(=O)C1(C)CCN(CC(=O)O)CC1` [Example 43, (R)-2-(4-Methyl-4-((2-((methylamino)methyl)benzyl)(2-oxo-2-((2′-oxo-1,1′,2′,3-tetrahydrospiro[indene-2,3′-pyrrolo[2,3-b]pyridin]-5-yl)amino)ethyl)carbamoyl)piperidin-1-yl)acetic Acid]: the IC50 was 135 nM.
With `CNCc1ccccc1CN(CC(=O)Nc1ccc2c(c1)C[C@@]1(C2)C(=O)Nc2ncccc21)C(=O)C1(C)CCN(CC(=O)N2CCNCC2)CC1` [Example 44, (R)-4-Methyl-N-(2-((methylamino)methyl)benzyl)-N-(2-oxo-2-((2′-oxo-1,1′,2′,3-tetrahydrospiro[indene-2,3′-pyrrolo[2,3-b]pyridin]-5-yl)amino)ethyl)-1-(2-oxo-2-(piperazin-1-yl)ethyl)piperidine-4-carboxamide] the figure was 10.7 nM; with `CNCc1ccccc1CN(CC(=O)Nc1ccc2c(c1)CC1(C2)C(=O)Nc2ncccc21)C(=O)C1(C)CCN(CC(=O)O)CC1` (centres unmarked) [Example 45, 2-(4-Methyl-4-((2-((methylamino)methyl)benzyl)(2-oxo-2-((2′-oxo-1,1′,2′,3-tetrahydrospiro[indene-2,3′-pyrrolo[2,3-b]pyridin]-5-yl)amino)ethyl)carbamoyl)piperidin-1-yl)acetic Acid], 2.34 nM; with `CNCc1ccccc1CN(CC(=O)Nc1ccc2c(c1)C[C@@]1(C2)C(=O)Nc2ncccc21)C(=O)C1(C)CCN(Cc2ccc(C(=O)O)cc2)CC1` [Example 46, (R)-4-[[4-Methyl-4-[[2-(methylaminomethyl)phenyl]methyl-[2-oxo-2-[[(3R)-2-oxospiro[1H-pyrrolo[2,3-b]pyridine-3,2′-indane]-5′-yl]amino]ethyl]carbamoyl]-1-piperidyl]methyl]benzoic Acid], 25.7 nM.
For the compound `CNCc1ccccc1CN(CC(=O)Nc1ccc2c(c1)C[C@@]1(C2)C(=O)Nc2ncccc21)C(=O)C1(C)CCN(Cc2cccc(C(=O)O)c2)CC1` [Example 47, (R)-3-((4-Methyl-4-((2-((methylamino)methyl)benzyl)(2-oxo-2-((2′-oxo-1,1′,2′,3-tetrahydrospiro[indene-2,3′-pyrrolo[2,3-b]pyridin]-5-yl)amino)ethyl)carbamoyl)piperidin-1-yl)methyl)benzoic Acid], the IC50 was 5.01 nM.
The value for `CNCc1ccccc1CN(CC(=O)Nc1ccc2c(c1)C[C@@]1(C2)C(=O)Nc2ncccc21)C(=O)C1(C)CCN(CC2CCNCC2)CC1` [Example 49, (R)-4-Methyl-N-(2-((methylamino)methyl)benzyl)-N-(2-oxo-2-((2′-oxo-1,1′,2′,3-tetrahydrospiro[indene-2,3′-pyrrolo[2,3-b]pyridin]-5-yl)amino)ethyl)-1-(piperidin-4-ylmethyl)piperidine-4-carboxamide] was 1.55 nM; that for `CNCc1ccccc1CN(CC(=O)Nc1ccc2c(c1)C[C@@]1(C2)C(=O)Nc2ncccc21)C(=O)C1(C)CCN(Cc2ccncc2)CC1` [Example 50, (R)-4-Methyl-N-(2-((methylamino)methyl)benzyl)-N-(2-oxo-2-((2′-oxo-1,1′,2′,3-tetrahydrospiro[indene-2,3′-pyrrolo[2,3-b]pyridin]-5-yl)amino)ethyl)-1-(pyridin-4-ylmethyl)piperidine-4-carboxamide] was 2.19 nM.
